Assay results as given in US20090186110A1, “GUAVA EXTRACT” (priority 2005, published 2009).

Molecular target: T1, DP-IV (Homo sapiens, UniProt P27487)
T1 construct: DP-IV also exists as a soluble circulating form in plasma; from tissue; host or cells: human plasma
Test: DP-IV activity colorimetric assay (Gly-Pro-4-NA substrate, human plasma)
Type: biochemical
Description: DP-IV activity was measured by a colorimetric assay.
DP-IV activity is expressed as the linear change in optical density over 20 min (Δ Abs/min).

T1 sequence (P27487 39-766 limits assumed): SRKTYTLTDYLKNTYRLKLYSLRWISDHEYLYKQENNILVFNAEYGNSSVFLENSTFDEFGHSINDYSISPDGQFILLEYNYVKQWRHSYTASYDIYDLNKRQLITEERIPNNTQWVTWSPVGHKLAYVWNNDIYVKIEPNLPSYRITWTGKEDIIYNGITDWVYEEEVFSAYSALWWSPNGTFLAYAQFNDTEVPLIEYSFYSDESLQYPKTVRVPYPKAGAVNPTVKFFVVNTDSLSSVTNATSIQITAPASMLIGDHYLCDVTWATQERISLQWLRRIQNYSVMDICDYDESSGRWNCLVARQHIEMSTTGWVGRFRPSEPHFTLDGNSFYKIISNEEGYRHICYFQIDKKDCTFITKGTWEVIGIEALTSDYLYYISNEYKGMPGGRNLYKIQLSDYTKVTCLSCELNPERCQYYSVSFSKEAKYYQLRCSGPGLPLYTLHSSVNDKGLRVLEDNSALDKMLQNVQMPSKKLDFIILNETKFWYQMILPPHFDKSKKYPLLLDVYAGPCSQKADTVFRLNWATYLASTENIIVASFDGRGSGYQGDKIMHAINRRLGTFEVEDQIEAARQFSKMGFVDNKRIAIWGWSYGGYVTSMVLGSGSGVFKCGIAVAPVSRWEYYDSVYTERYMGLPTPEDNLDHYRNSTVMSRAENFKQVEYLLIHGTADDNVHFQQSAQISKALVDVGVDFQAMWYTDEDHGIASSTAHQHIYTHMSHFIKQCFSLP

- concentration that yielded a DP-IV inhibition of around 50% (guaijaverin in HEPES buffer, tested 70-280 μg/mL): 140-210 μg/mL test assay
Compound: O=c1c(O[C@@H]2OC[C@H](O)[C@H](O)[C@H]2O)c(-c2ccc(O)c(O)c2)oc2cc(O)cc(O)c12 [guaijaverin]
- DP-IV inhibition (result in words): clear, dose dependent inhibition of DP-IV
